The values below come from patent publication US10413552B2, “Method of treating medulloblastoma” (THE HOSPITAL FOR SICK CHILDREN, priority 2015, dated 2019).

Experiment [1] concerns D425 and D458 medulloblastoma cell lines. In words: MTS cell proliferation assay in Group 3 medulloblastoma cell lines. Type of experiment: cell-based. The settings on record: 48 hours treatment. Here is the method: (§1) FIG. 1 illustrates the cytotoxic effect of piperlongumine, alsterpaullone, rottlerin and flunarizine in Group 3 medulloblastoma cell lines. Established medulloblastoma cell lines (D425 and D458) and a fetal neural stem cell line (hf5281) were treated with various concentrations of (a) piperlongumine, (b) alsterpaullone, (c) rottlerin and (d) flunarizine for 48 hours. Cell viability was measured by MTS assay. Data represent mean of triplicates±SEM.
(§2) D425 and D458 cells were grown as suspension cultures and seeded in 96-well microplates at 10,000 cells per well. Fetal normal human brain cells (hf5281) were grown as an adherent culture and seeded in 96-well microplates at 4,000 and 5,000 cells per well. Cells were treated for 48 h with different concentrations of Piperlongumine (PL; INDOFINE Chemical Company), alsterpaullone (ALP; A, G. Scientific), rottlerin (RTL; A. G. Scientific) and flunarizine (FZ; Sigma) or DMSO (control). Cell viability was determined by MTS proliferation assay (3-(4,5-dimethylthiazol-2-yl)-5-(3-carboxymethoxyphenyl)-2-(4-sulfophenyl)-2H-tetrazolium) and the absorbance was measured at 490 nm (CellTiter 96 Aqueous One Solution Reagent; Promega). Three independent experiments were performed with 16 repeats per treatment condition.

Experiment [2] deals with D458 cerebellar xenografts. Put plainly: D458 intracranial medulloblastoma xenograft. The format is in vivo, athymic nude mice. The note with it: for medulloblastoma growth (bioluminescence imaging, H&E): D458-luciferase xenograft, vs DMSO-treated controls; for medulloblastoma growth (bioluminescence imaging, H&E) / survival: s.c. for 2 weeks; for survival / survival difference, log-rank test p: D458 xenograft; for survival: Kaplan-Meier; for survival difference, log-rank test p: vs vehicle control. Here is the method: (§3) Medulloblastoma intracranial xenografts were established in 5-6 week old athymic nude mice (Charles River Laboratories). Medulloblastoma cells (250,000 D425 and D458 cells) were implanted in the right cerebellum of mice. Six days after cell inoculation, animals were randomized into treatment cohorts, which included subcutaneous injections with vehicle control (10% DMSO), PL (50 mg/kg, daily for 2 weeks), ALP (30 mg/kg, daily for 2 weeks), RTL (20 mg/kg, every other day for 2 weeks) or FZ (50 mg/Kg, daily for 2 weeks).
In animals bearing D458-GFP/Luciferase xenografts, bioluminescence imaging was performed at 6 days after intracranial injection. Mice with a detectable signal were included in the study and tumor growth was monitored at one-week intervals using the IVIS Spectrum Optical In-vivo Imaging System (Caliper Life Sciences).
(§4) Animals with progressive neurological signs or weight loss greater than 20% were euthanized and the brains harvested and fixed in 10% formalin.
(§5) The Kaplan-Meier estimate and a log-rank test were used to generate survival curves. Experiments were performed in triplicate and results were expressed as mean±SEM. Statistical analysis was performed using GraphPad Prism 5 Software.
The efficacy of PL, ALP, RTL and FZ in established medulloblastoma xenografts representative of Group 3 medulloblastomas was then determined. D458 cells expressing luciferase were implanted in the right cerebellum of nude mice and bioluminescence imaging was performed at 6 days post inoculation. Animals with a detectable signal were treated by subcutaneous injection with PL (50 mg/kg, daily for 2 weeks), ALP (30 mg/kg, daily for 2 weeks), RTL (20 mg/kg, every other day for 2 weeks), FZ (50 mg/Kg, daily for 2 weeks) or vehicle control (10% DMSO).

The subject of experiment [3] is hf5281 fetal normal human brain cells. Put plainly: MTS cell proliferation assay in fetal normal human brain cells. Type of experiment: cell-based. The note with it: hf5281, up to the highest concentration tested of 10 μM. Here is the method: as §1, §2
Experiment [4] deals with D425 and D458 medulloblastoma cells. In words: Western blot, induction of apoptosis. The settings on record: 48 h treatment. Type of experiment: cell-based. Here is the method: (§6) Cell lysates were prepared by adding RIPA buffer (Sigma) containing protease inhibitors (F. Hoffman-La Roche AG), 0.2 M sodium orthovanadate, 0.2 M sodium pyrophosphate and 0.2 M sodium fluoride. The Pierce BCA Protein Assay Kit (Thermo Scientific) was used to determine protein concentration. […] The following antibodies were used: PARP (1:1,000; Cell Signaling), AKT (1:1,000; Cell Signaling), phospho-AKT (1:2,000; Ser473, Cell Signaling), α-tubulin (1:1,000; Cell Signaling), anti-mouse IgG conjugated to horseradish peroxidase (1:5,000; Amersham Biosciences) and anti-rabbit IgG conjugated to horseradish peroxidase (1:5,000; Cell Signaling).
(§7) To determine the mechanisms by which PL and ALP exert their antitumor effect, D425 and D458 medulloblastoma cells were treated with both drugs for 48 h.

Experiment [5] deals with AKT pathway. Put plainly: Western blot, AKT pathway inhibition. Type of experiment: cell-based. The settings on record: 48 h treatment, D458 and D425 cells. Here is the method: as §6, §7
In experiment [6] the test system is D425 cerebellar xenografts. Put plainly: D425 intracranial medulloblastoma xenograft. The settings on record: for survival: Kaplan-Meier; for medulloblastoma growth (H&E): vs control group. The format is in vivo, athymic nude mice. The method, then: as §3, §4, §5
Experiment [7] has as its system D425 and D458 medulloblastoma cells. Put plainly: Gene expression profiling and Gene Set Enrichment Analysis (GSEA) after treatment. The format is cell-based, human. The method, then: D425 and D458 medulloblastoma cells were treated with 5 μM of PL, 5 μM of ALP or DMSO (control) for 48 h. RNA isolation was performed using the RNeasy Mini Kit (Qiagen) and gene expression data were generated using the Human PrimeView Arrays. Gene Set Enrichment Analysis (GSEA) was performed using gene sets from the National Cancer Institute (NCI), Gene Ontology (GO), Kyoto Encyclopedia of Genes and Genomes (KEGG), Protein Families (PFAM) and Biocarta pathway databases. Significant gene sets were identified (FDR<0.05; p<0.01) and visualized in Cytoscape and Enrichment Map software.
To identify downstream transcriptional events induced by ALP, genomic profiling of Group 3 medulloblastoma cell lines (D425 and D458) was conducted after treatment for 48 hours. […] Gene Set Enrichment Analysis (GSEA) was performed with gene sets compiled from the National Cancer Institute (NCI), Gene Ontology (GO), Kyoto Encyclopedia of Genes and Genomes (KEGG), Protein Families (PFAM) and Biocarta pathway databases. To visualize significant gene sets (FDR<0.05; p<0.01) as interaction networks, Cytoscape and Enrichment Map were used.

The mark [8] stands for this setting: D425 and D458, 5 μM, 48 h vs DMSO, rank 1.
Where [9] appears, read: D425 and D458, 5 μM, 48 h vs DMSO, rank 2.
The mark [10] stands for this setting: D425 and D458, 5 μM, 48 h vs DMSO, rank 3.
[11] abbreviates: D425 and D458, 5 μM, 48 h vs DMSO, rank 4.
The mark [12] stands for this setting: D425 and D458, 5 μM, 48 h vs DMSO, rank 5.
The mark [13] stands for this setting: D425 and D458, 5 μM, 48 h vs DMSO, rank 6.
[14] abbreviates: D425 and D458, 5 μM, 48 h vs DMSO, rank 7.
Where [15] appears, read: D425 and D458, 5 μM, 48 h vs DMSO, rank 8.
The mark [16] stands for this setting: D425 and D458, 5 μM, 48 h vs DMSO, rank 9.
Where [17] appears, read: D425 and D458, 5 μM, 48 h vs DMSO, rank 10.

Turning to `CC(=O)c1c(O)c(C)c(O)c(Cc2c(O)c3c(c(C(=O)/C=C/c4ccccc4)c2O)OC(C)(C)C=C3)c1O` [rottlerin], in experiment [1], the “concentration at which cell proliferation was reduced” value is 5 µM. In experiment [2], the “medulloblastoma growth (bioluminescence imaging, H&E)” value was “Marked reduction in medulloblastoma growth”; the survival result is “significant increase in survival”; the “survival difference, log-rank test p” value was 0.0262. The “reduction in cell proliferation” value in experiment [3] is given as “little reduction in cell proliferation”.
With `Fc1ccc(C(c2ccc(F)cc2)N2CCN(C/C=C/c3ccccc3)CC2)cc1` [flunarizine], the survival entry in experiment [2] was “not able to prolong survival”.
In the case of `COc1cc(/C=C/C(=O)N2CCC=CC2=O)cc(OC)c1OC` [piperlongumine], the “concentration at which cell proliferation was reduced” value in experiment [1] was found to be 5 µM. For the same molecule, in experiment [2], the “medulloblastoma growth (bioluminescence imaging, H&E)” value is recorded as “Marked reduction in medulloblastoma growth”; the survival result was “significant increase in survival”; the “survival difference, log-rank test p” value is 0.0011. Moreover, the “apoptosis (Western blot)” value in experiment [4] is reported as “induction of apoptosis”. In addition, the “AKT pathway activation (Western blot)” value in experiment [5] was “AKT pathway inhibition”. In experiment [3], the “reduction in cell proliferation” value is on record as “little reduction in cell proliferation”. In addition, in experiment [6], the survival entry was “significantly increase survival” and the “medulloblastoma growth (H&E)” value is reported as “reduce medulloblastoma growth”.
On to `O=C1Cc2c([nH]c3ccc([N+](=O)[O-])cc23)-c2ccccc2N1` [alsterpaullone, 9-nitro-7,12-dihydroindolo-[3,2-d][1]benzazepin-6(5)-one], for which the “concentration at which cell proliferation was reduced” value in experiment [1] amounted to 1 µM. Moreover, in experiment [2], the “medulloblastoma growth (bioluminescence imaging, H&E)” value is “Marked reduction in medulloblastoma growth”; the survival entry is “significant increase in survival”; the “survival difference, log-rank test p” value is on record as 0.0043. Also, the “apoptosis (Western blot)” value in experiment [4] was “induced apoptosis”. Besides, in experiment [7] (setting [8]), the “GSEA enriched pathway Cell Cycle Mitotic: Regulation” value is on record as “Down-Regulated” and the “GSEA enriched pathway Systemic Lupus Erythematosus: Regulation” value is listed as “Up-Regulated”. Further, in experiment [7] (setting [9]), the “GSEA enriched pathway Mitotic M M G1 Phases: Regulation” value is reported as “Down-Regulated” and the “GSEA enriched pathway RNA Pol 1 Promoter Opening: Regulation” value is “Up-Regulated”. In experiment [7] (setting [10]), the “GSEA enriched pathway Amyloids: Regulation” value is given as “Up-Regulated” and the “GSEA enriched pathway Mitotic Prometaphase: Regulation” value is listed as “Down-Regulated”. In experiment [7] (setting [11]), the “GSEA enriched pathway DNA Replication: Regulation” value is “Down-Regulated” and the “GSEA enriched pathway Packaging of Telomere Ends: Regulation” value is on record as “Up-Regulated”. Besides, in experiment [7] (setting [12]), the “GSEA enriched pathway G2 M Checkpoints: Regulation” value was “Down-Regulated” and the “GSEA enriched pathway Olfactory Signaling Pathway: Regulation” value is “Up-Regulated”. For the same molecule, in experiment [7] (setting [13]), the “GSEA enriched pathway Autoimmune Thyroid Disease: Regulation” value is on record as “Up-Regulated” and the “GSEA enriched pathway Metabolism of Non Coding RNA: Regulation” value is “Down-Regulated”. In addition, in experiment [7] (setting [14]), the “GSEA enriched pathway Activation of the Pre Replicative Complex: Regulation” value is reported as “Down-Regulated” and the “GSEA enriched pathway Asthma: Regulation” value was “Up-Regulated”. Further, in experiment [7] (setting [15]), the “GSEA enriched pathway Cell Cycle: Regulation” value is listed as “Down-Regulated” and the “GSEA enriched pathway Class A1 Rhodopsin Like Receptors: Regulation” value was “Up-Regulated”. Also, in experiment [7] (setting [16]), the “GSEA enriched pathway Activation of ATR in Response to Replication Stress: Regulation” value was “Down-Regulated”; the “GSEA enriched pathway Immunoregulatory Interactions Between a lymphoid and a non lymphoid Cell: Regulation” value is “Up-Regulated”. In addition, in experiment [7] (setting [17]), the “GSEA enriched pathway Cell Cycle Checkpoints: Regulation” value was “Down-Regulated” and the “GSEA enriched pathway RNA Pol 1 Transcription: Regulation” value is listed as “Up-Regulated”. Further, the “gene expression change vs DMSO-treated cells” value in experiment [7] (D425 and D458, 48 hours, MYC, CDK7, RB1, CDK6, CCNB1, CDK5RAP2, CDK1, CDKN2C) was “down-regulation of genes involved in cell cycle”. Also, in experiment [5], the “AKT pathway activation (Western blot)” value is listed as “potently inhibited AKT pathway activation at lower concentrations than PL”. The “reduction in cell proliferation” value in experiment [3] is “little reduction in cell proliferation”. In addition, in experiment [6], the survival entry is reported as “significantly increase survival” and the “medulloblastoma growth (H&E)” value was “reduce medulloblastoma growth”.
